pKi: −log10 of the molar value. Where two headings read alike, the source gives them in different places.
Experiments:
[1] = target: human D2 receptor (Homo sapiens (Human), UniProt P14416); test: Radioligand binding assay, [3H]-spiperone, human D2 receptor; conditions: membranes of HEK293 EBNA cells expressing human D2; 0.7 nM [3H]-spiperone
Method: (§1) HEK293 EBNA cells were transiently transfected with expression plasmids encoding for the human D2 or D3 or for the human 5-HT2A receptor, respectively. The cells were harvested 48 h post-transfection, washed three times with cold PBS and stored at −80° C. prior to use. The pellet was suspended in cold 50 mM Tris-HCl buffer comprising 10 mM EDTA (pH 7.4) and was homogenized with a Polytron (Kinematica AG, Basel, Switzerland) for 20-30 sec at 12.000 rpm. After centrifugation at 48.000×g for 30 min at 4° C., the pellet was resuspended in cold 10 mM Tris-HCl buffer comprising 0.1 mM EDTA (pH 7.4), homogenized, and centrifuged as above. This pellet was further resuspended in a smaller volume of ice cold 10 mM Tris-HCl buffer comprising 0.1 mM EDTA (pH 7.4) and homogenized with a Polytron for 20-30 sec at 12.000 rpm. The protein content of this homogenate was determined with the Bio-Rad (Bradford) Protein Assay (Biorad Laboratories GmbH, München, Germany) according to the instructions of the manufacturer using gamma globulin as the standard. This homogenate was stored at −80° C. in aliquots and thawed immediately prior to use.
(§2) Aliquots of membrane preparations were thawed at RT, resuspended in assay buffer (D2, D3: 50 mM Tris-HCl, 120 mM NaCl, 5 mM MgCl2, 1 mM EDTA, 5 mM KCl, 1.5 mM CaCl2, pH=7.4; 5-HT2A: 50 mM Tris-HCl, 10 mM MgCl2, 1 mM EGTA, pH=7.4), homogenized with a Polytron for 20-30 sec at 12.000 rpm and adjusted to a final concentration of approximately 7.5 μg protein/well (D2, D3) and 15 μg protein/well (5-HT2A), respectively.
(§3) The binding affinity (Ki) of the compounds was determined using radioligand binding. Membranes were incubated in a total volume of 200 μl with a fixed concentration of radioligand (final concentration approximately 0.7 nM [^3H]-spiperone for D2, 0.5 nM [^3H]-spiperone for D3, and 1.1 nM [^3H]-ketanserin for 5-HT2A) and ten concentrations of test compound in ranging between 10 μM-0.1 nM for 1 h at RT. […] The nonspecific binding was determined with equally composed reaction mixtures in the presence of 10 μM unlabelled spiperone. Per well 45 μl of Microscint 40 (Perkin Elmer, Schwerzenbach, Switzerland) was added, plates for sealed, shaken for 20 min and counted for 3 min on a Topcount Microplate Scintillation Counter (Can berra Packard SA, Zürich, Switzerland) with quenching correction.
(§4) The CPM value for each duplicate of a concentration of competing compound was averaged (y1), then the % specific binding was calculated according to the equation (((y1−non-specific)/(total binding−non-specific))×100). Graphs were plotted with the % specific binding using XLfit, a curve fitting program that iteratively plots the data using Levenberg-Marquardt algorithm. […] The affinity constant (K) was calculated using the Cheng-Prusoff equation Ki=(IC50/1+([L]/Kd), where [L] is the concentration of radioligand and Kd is the dissociation constant of the radioligand at the receptor as determined by the saturation isotherm.

[2] = target: human D3 receptor (Homo sapiens (Human), UniProt P35462); test: Radioligand binding assay, [3H]-spiperone, human D3 receptor; conditions: membranes of HEK293 EBNA cells expressing human D3; 0.5 nM [3H]-spiperone
Chain of human D3 receptor (P35462 whole entry): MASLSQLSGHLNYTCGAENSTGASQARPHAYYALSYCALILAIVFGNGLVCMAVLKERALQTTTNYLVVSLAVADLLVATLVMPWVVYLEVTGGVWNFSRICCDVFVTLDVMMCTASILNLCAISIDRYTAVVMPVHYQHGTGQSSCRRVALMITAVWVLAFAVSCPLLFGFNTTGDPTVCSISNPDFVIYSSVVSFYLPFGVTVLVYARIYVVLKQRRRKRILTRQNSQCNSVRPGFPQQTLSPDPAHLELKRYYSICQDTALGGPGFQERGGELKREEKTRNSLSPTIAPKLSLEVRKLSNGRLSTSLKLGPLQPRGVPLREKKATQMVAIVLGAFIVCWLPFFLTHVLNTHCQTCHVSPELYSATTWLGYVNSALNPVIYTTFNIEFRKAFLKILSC
Method: as §1, §2, §3
as §4, with “algorithm. The single site competition analysis equation used was y=A+((B−A)/(1+((x/C)D))), where y is the % specific binding, A is the minimum y, B is the maximum y, C is the IC50, x is the log 10 of the concentration of the competing compound and D is the slope of the curve (the Hill Coefficient).” for “algorithm.”

[3] = target: human 5-HT2A receptor (Homo sapiens (Human), UniProt P28223); test: Radioligand binding assay, [3H]-ketanserin, human 5-HT2A receptor
Chain of human 5-HT2A receptor (P28223 whole entry): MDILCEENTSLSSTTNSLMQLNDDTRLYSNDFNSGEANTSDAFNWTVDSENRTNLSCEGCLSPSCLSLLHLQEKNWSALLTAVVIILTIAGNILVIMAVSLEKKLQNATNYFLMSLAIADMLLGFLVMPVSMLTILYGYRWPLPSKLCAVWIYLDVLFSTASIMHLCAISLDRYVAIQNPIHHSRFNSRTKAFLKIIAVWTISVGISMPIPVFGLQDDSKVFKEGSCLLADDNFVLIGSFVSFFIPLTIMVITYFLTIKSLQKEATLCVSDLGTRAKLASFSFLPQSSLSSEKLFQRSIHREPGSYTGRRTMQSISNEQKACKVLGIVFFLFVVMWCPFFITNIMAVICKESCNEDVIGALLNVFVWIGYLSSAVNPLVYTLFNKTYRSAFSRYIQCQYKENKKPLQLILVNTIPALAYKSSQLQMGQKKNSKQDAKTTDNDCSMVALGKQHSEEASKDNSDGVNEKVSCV
Method: as §1, §2, §3
as §4, with “algorithm. The single site competition analysis equation used was y=A+((B−A)/(1+((x/C)D))), where y is the % specific binding, A is the minimum y, B is the maximum y, C is the IC50, x is the log 10 of the concentration of the competing compound and D is the slope of the curve (the Hill Coefficient).” for “algorithm.”

[4] = membranes of HEK293 EBNA cells expressing human 5-HT2A, 1.1 nM [3H]-ketanserin

Chain of human D2 receptor (P14416 whole entry): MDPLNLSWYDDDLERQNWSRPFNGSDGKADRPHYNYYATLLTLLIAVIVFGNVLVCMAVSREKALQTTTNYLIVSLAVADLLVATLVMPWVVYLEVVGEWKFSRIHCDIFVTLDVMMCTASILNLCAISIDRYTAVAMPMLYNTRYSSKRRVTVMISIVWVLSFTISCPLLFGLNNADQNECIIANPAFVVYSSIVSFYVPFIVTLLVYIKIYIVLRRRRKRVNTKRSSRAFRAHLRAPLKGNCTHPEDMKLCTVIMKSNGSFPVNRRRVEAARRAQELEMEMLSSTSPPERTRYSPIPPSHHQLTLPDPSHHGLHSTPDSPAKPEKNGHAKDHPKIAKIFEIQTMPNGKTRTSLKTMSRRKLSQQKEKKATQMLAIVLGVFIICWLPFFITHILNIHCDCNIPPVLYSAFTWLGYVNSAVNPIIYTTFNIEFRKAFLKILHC

SMILES | pKi [1] | pKi [2] | melting point | pKi [3, 4] | pKi [3]
O=C(CC1CCCO1)N[C@H]1CC[C@H](CCN2CCN(c3nccc4c3CCO4)CC2)CC1 (mixture of isomers) [Example 64, trans-N-(4-{2-[4-(2,3-Dihydro-furo[3,2-c]pyridin-4-yl)-piperazin-1-yl]-ethyl}-cyclohexyl)-2-rac-(tetrahydro-furan-2-yl)-acetamide] | 5.90 | 7.62 | 181.5 °C | 7.78 | 
CCC(C)C(=O)N[C@H]1CC[C@H](CCN2CCN(c3nccc4c3CCO4)CC2)CC1 (mixture of isomers) [Example 76, trans-N-(4-{2-[4-(2,3-Dihydro-furo[3,2-c]pyridin-4-yl)-piperazin-1-yl]-ethyl}-cyclohexyl)-rac-2-methyl-butyramide] | 6.15 | 7.60 | 205.5 °C | 7.88 | 
O=C(CC1C[C@H](O)CO1)N[C@H]1CC[C@H](CCN2CCN(c3nccc4c3CCO4)CC2)CC1 (stereo in doubt) [Example 91, trans-N-(4-{2-[4-(2,3-Dihydro-furo[3,2-c]pyridin-4-yl)-piperazin-1-yl]-ethyl}-cyclohexyl)-2-((S)-4-hydroxy-tetrahydro-furan-2-yl)-acetamide] | 6.03 | 7.85 | 155 °C | 7.65 | 
CC(=O)N[C@H]1CC[C@H](CCN2CCN(c3nccc4c3CCO4)CC2)CC1 [Example 32, trans-N-(4-{2-[4-(2,3-Dihydro-furo[3,2-c]pyridin-4-yl)-piperazin-1-yl]-ethyl}-cyclohexyl)-acetamide] | 6.11 | 7.90 | 260 °C | 7.64 | 
O=C(N[C@H]1CC[C@H](CCN2CCN(c3nccc4c3CCO4)CC2)CC1)C1CCOCC1 [Example 33, trans-N-(4-{2-[4-(2,3-Dihydrofuro[3,2-c]pyridin-4-yl)-piperazin-1-yl]-ethyl}-cyclohexyl)-tetrahydro-2H-pyran-4-carboxamide] | 6.30 | 7.42 | 263 °C | 8.23 | 
O=C(CC1CCOCC1)N[C@H]1CC[C@H](CCN2CCN(c3nccc4c3CCO4)CC2)CC1 [Example 34, trans-N-(4-{2-[4-(2,3-Dihydrofuro[3,2-c]pyridin-4-yl)-piperazin-1-yl]-ethyl}-cyclohexyl)-2-(tetrahydro-2H-pyran-4-yl)-acetamide] | 6.06 | 7.60 | 233 °C | 7.70 | 
COCCC(=O)N[C@H]1CC[C@H](CCN2CCN(c3nccc4c3CCO4)CC2)CC1 [Example 35, trans-N-(4-{2-[4-(2,3-Dihydrofuro[3,2-c]pyridin-4-yl)-piperazin-1-yl]-ethyl}-cyclohexyl)-3-methoxypropanamide] | 5.83 | 7.76 | 246.5 °C | 7.62 | 
CCC(=O)N[C@H]1CC[C@H](CCN2CCN(c3nccc4c3CCO4)CC2)CC1 [Example 36, trans-N-(4-{2-[4-(2,3-Dihydrofuro[3,2-c]pyridin-4-yl)-piperazin-1-yl]-ethyl}-cyclohexyl)-propionamide] | 6.09 | 8.01 | 192.5 °C | 7.88 | 
COCC(=O)N[C@H]1CC[C@H](CCN2CCN(c3nccc4c3CCO4)CC2)CC1 [Example 38, trans-N-(4-{2-[4-(2,3-Dihydrofuro[3,2-c]pyridin-4-yl)-piperazin-1-yl]-ethyl}-cyclohexyl)-2-methoxyacetamide] | 5.81 | 7.34 | 169.5 °C |  | 7.96
CS(=O)(=O)CC(=O)N[C@H]1CC[C@H](CCN2CCN(c3nccc4c3CCO4)CC2)CC1 [Example 39, trans-N-(4-{2-[4-(2,3-Dihydrofuro[3,2-c]pyridin-4-yl)-piperazin-1-yl]-ethyl}-cyclohexyl)-methylsulfonyl-acetamide] | 5.99 | 8.01 | 260.5 °C |  | 7.79
O=C(CO)N[C@H]1CC[C@H](CCN2CCN(c3nccc4c3CCO4)CC2)CC1 [Example 40, trans-N-(4-{2-[4-(2,3-Dihydrofuro[3,2-c]pyridin-4-yl)-piperazin-1-yl]-ethyl}-cyclohexyl)-hydroxyacetamide] | 5.80 | 7.80 | 237 °C | 7.91 | 
O=C(CCO)N[C@H]1CC[C@H](CCN2CCN(c3nccc4c3CCO4)CC2)CC1 [Example 41, trans-N-(4-{2-[4-(2,3-Dihydrofuro[3,2-c]pyridin-4-yl)-piperazin-1-yl]-ethyl}-cyclohexyl)-3-hydroxypropanamide] | 6.13 | 7.94 | 173 °C |  | 7.45
O=C(N[C@H]1CC[C@H](CCN2CCN(c3nccc4c3CCO4)CC2)CC1)c1ccccc1 [Example 44, trans-N-(4-{2-[4-(2,3-Dihydro-furo[3,2-c]pyridin-4-yl)-piperazin-1-yl]-ethyl}-cyclohexyl)-benzamide] | 6.32 | 8.12 | 207.5 °C | 8.12 | 
O=C(N[C@H]1CC[C@H](CCN2CCN(c3nccc4c3CCO4)CC2)CC1)c1ccc(F)cc1 [Example 45, trans-N-(4-{2-[4-(2,3-Dihydro-furo[3,2-c]pyridin-4-yl)-piperazin-1-yl]-ethyl}-cyclohexyl)-4-fluoro-benzamide] | 6.47 | 7.97 | 209.5 °C |  | 7.95
O=C(N[C@H]1CC[C@H](CCN2CCN(c3nccc4c3CCO4)CC2)CC1)c1ccc(Cl)cc1 [Example 46, trans-4-Chloro-N-(4-{2-[4-(2,3-dihydro-furo[3,2-c]pyridin-4-yl)-piperazin-1-yl]-ethyl}-cyclohexyl)-benzamide] | 6.54 | 7.88 | 226.5 °C |  | 7.83
O=C(N[C@H]1CC[C@H](CCN2CCN(c3nccc4c3CCO4)CC2)CC1)c1ccc(C(F)(F)F)cc1 [Example 47, trans-N-(4-{2-[4-(2,3-Dihydro-furo[3,2-c]pyridin-4-yl)-piperazin-1-yl]-ethyl}-cyclohexyl)-4-trifluoromethyl-benzamide] | 6.06 | 7.24 | 227 °C | 7.73 | 
CS(=O)(=O)N[C@H]1CC[C@H](CCN2CCN(c3nccc4c3CCO4)CC2)CC1 [Example 48, trans-N-(4-{2-[4-(2,3-Dihydro-furo[3,2-c]pyridin-4-yl)-piperazin-1-yl]-ethyl}-cyclohexyl)-methanesulfonamide] | 5.90 | 7.50 | 220 °C | 7.66 | 
CCS(=O)(=O)N[C@H]1CC[C@H](CCN2CCN(c3nccc4c3CCO4)CC2)CC1 [Example 49, Ethanesulfonic acid trans-(4-{2-[4-(2,3-dihydro-furo[3,2-c]pyridin-4-yl)-piperazin-1-yl]-ethyl}-cyclohexyl)-amide] | 5.96 | 7.66 | 224 °C |  | 7.75

— patent US8586579B2, “Anellated pyridine compounds” (Hoffmann-La Roche Inc., priority 2010, dated 2013)
